How the values were obtained:
[1] = tested on: Mutant TERT; assay: HepG2 hTERT mRNA assay (qPCR); type: cell-based, human; settings: Homo sapiens; HepG2 cells (mutated TERT), 48 hours, TERT mRNA via qPCR
Protocol: (§1) HepG2 cells (hepatocyte carcinoma (HCC) cells; with mutated TERT) or HEK293T cells (with wild type (wt) TERT) were seeded at 4,000 cells/well in 96-well plates. The following day, test compounds were added to cells for at concentrations of 25 uM, 12.5 uM, 6.25 uM, 3.125 uM, 1.563 uM, 0.781 uM, 0.391 uM, 0.195 uM, 0.098 uM or vehicle control (0.1% DMSO). Each condition was tested in three replicate wells. 48 hours post drug addition, the cells were harvested for RNA using the 96-Magmax RNA Isolation kit (Cat. No. AM1830). RNA was converted to cDNA using the Superscript III First strand cDNA synthesis kit (Cat. No. 18080051). RNA and cDNA concentration and quality were determined using the NanoQuant nucleic acid quantification method. 500 ng cDNA from each sample was used to detect TERT mRNA via qPCR. GUSB was also measured as an internal control and fold change to vehicle control was determined using the delta CT method.

[2] = tested on: wt TERT; assay: HEK293T hTERT mRNA assay (qPCR); type: cell-based, human; settings: HEK293 cells (wt TERT), 48 hours, class symbols
Protocol: as §1

[3] = tested on: GBM39 orthotopic xenograft; assay: GBM39 orthotopic xenograft, tumor BLI; type: in vivo, mice; settings: for tumor BLI change: 5 days
Protocol: (§2) In this study, Compound 101 was dosed twice daily (BID) via oral gavage to mice with GBM39 orthotopic xenograft (GBM39 cells). Tumor size was measured via Bioluminescence imaging (BLI). BLI readings were taken on treatment day 1 and day 5. Tumors were also harvested for downstream RNA analysis.
(§3) For each dose group (N=6), the following steps were performed. Briefly, athymic nu/nu mice were injected intracranially with patient-derived Glioblastoma cells. Animals began treatment once tumor BLI levels reach the range of 1×10^8-5×10^8. A dosing solution of Compound 101 (50 mg/kd, 100 mg/kd, or 200 mg/kg) or vehicle were administered by oral gavage (P.O., 50-100 uL volume) for 5 days. The dosing solutions were prepared similar to the process in Example 4. Dosing was twice daily on days 1-4. On day 5 the mice received a single dose, prior to harvest. Three hours after the last dose, mice were sacrificed and their brains were harvested and processed for analysis. […] TERT expression was also found to be reduced in all three dose groups (FIG. 3).
In a second study with Compound 101 in the GBM mice model, the 200 mg/kg dosing group was changed to a 100 mg/kg once daily dosing (QD). The baseline BLI readings were taken two days prior to 1st treatment.

[4] = tested on: TERT; assay: TERT expression in GBM39 orthotopic xenograft tumors; type: in vivo, mice; settings: 50, 100 or 200 mg/kg BID, oral gavage, 5 days, FIG. 3
Protocol: as §2, §3

[5] = tested on: HepG2 subcutaneous tumor xenograft; assay: HepG2 subcutaneous tumor xenograft, tumor volume; type: in vivo, mice; settings: for Mean Tumor Volume: p.o, BID for 5 days
Protocol: The pharmacodynamic (PD) profiling of Compound 101 was determined in Athymic nude mice bearing subcutaneous tumor xenograft model.
(§4) HepG2 (Hepatocellular carcinoma cell line containing the C228T TERTp mutation) cells were implanted into the flanks of Athymic Nude-Foxn1nu mice. Once tumors reached 250-300 mm3 in size as measured by caliper, treatment of Compound 101 was initiated. Compound 101 was administered orally (P.O.) for 5 days BID at either 25 mg/kg, 50 mg/kg, or vehicle control (N=4 per group). Body weight and tumor size were measured on days 1, 3, and 5. Two hours after final dose administration, mice were sacrificed, and tumors extracted for RNA isolation and TERT mRNA expression analysis via RT-qPCR. Both TERT and GUSB were measured using SYBR green primers and relative TERT levels were analyzed using the delta delta CT method.

[6] = tested on: TERT; assay: TERT mRNA expression (RT-qPCR) in HepG2 xenograft tumors; type: in vivo, mice; settings: for TERT Expression (RT-qPCR) Mean Fold: p.o, BID for 5 days
Protocol: as §4

[7] = Body weight in HepG2 xenograft mice; type: in vivo; settings: p.o, BID for 5 days
Protocol: as §4

[8] = tested on: GBM39 cells orthotopic xenograft; assay: GBM orthotopic xenograft survival study; type: in vivo, mice; settings: oral gavage, 14 days of dosing
Protocol: GBM39 cells, a human PDX model of GBM, were selected for this study. GBM39 cells were stably transduced (MOI=3) with Firefly Luciferase Lentifect Purified Lentiviral Particles (Genecopoiea, #LPP-FLUC-Lv105) and were verified to be expressing luciferase stably and at similar levels 48 h pre-xenograft. A total of 1-4×10E4 luciferase-expressing PDX cells in 4 uL volume were injected into the right frontal cortex of athymic nu/nu mice (6-7-wk.-old, female). Animals were randomized into treatment groups and dosing initiated once tumors reach an average BLI of 1×10^8.
(§5) For this study, treatment began on day 7 post tumor cell implant and ceased on day 20 for a total of 14 days of dosing. Compound 101 was formulated with Solutol, DMSO and water and administered by oral gavage twice daily (BID). The dosage groups were vehicle control, 50 mg/kg BID, 25 mg/kg BID, and 10 mg/kg BID. […] Tumor size was monitored following injection of luciferin (150 mg/kg i.p.) 1-2 times weekly by bioluminescence imaging (Xenogen IVIS Spectrum Imaging System). Animals were weighed three times per week, and daily after initial weight loss is observed.

[9] = Body weight in GBM orthotopic xenograft survival study; type: in vivo, mice; settings: highest dosage group (50 mg/kg BID), first 3 dosing days
Protocol: as §5

[10] = oral, 25 mg/kg and 50 mg/kg BID, 5 days (both dose levels)

For `O=C(O)C[C@@H]1C[C@@H](c2ccc(C(F)(F)F)cc2)CN(Cc2ccc(C(F)(F)F)cc2)C1` [Compound 101, 2-((3S,5S)-1-(4-(trifluoromethyl)benzyl)-5-(4-(trifluoromethyl)phenyl)piperidin-3-yl)acetic acid], which IC50 [1] is on record?
The IC50 was under 500 nM.

And the “wt TERT IC50 uM HEK293” value [2]?
The value was ““++”-IA”.

What about the “tumor BLI change” value ([3]; 50, 100 or 200 mg/kg BID, oral gavage, FIG. 2) of the same compound?
Its value is “significant tumor reduction”.

What about the tumor size ([3]; second study, 100 mg/kg once daily dosing (QD)) of the same compound?
Its tumor size is “sufficient to reduce tumor size”.

And the “tumor BLI change” value ([3]; second study: 50 mg/kg BID, 100 mg/kg BID or 100 mg/kg QD, FIG. 4)?
The value was “significant tumor reduction”.

And the “TERT expression in tumor” value [4]?
Its value is “reduced”.

And the “Mean Tumor Volume” value ([5]; 25 mg/kg, Day 1)?
The value was 252.22 mm3.

What about the “Mean Tumor Volume” value ([5]; 25 mg/kg, Day 3) of the same compound?
The value was 230.02 mm3.

What about the “Mean Tumor Volume” value ([5]; 25 mg/kg, Day 5) of the same compound?
The value was 197.97 mm3.

What about the “Mean Tumor Volume” value ([5]; 50 mg/kg, Day 1) of the same compound?
Its value is 251.37 mm3.

What about the “Mean Tumor Volume” value ([5]; 50 mg/kg, Day 3) of the same compound?
Its value is 212.58 mm3.

And the “Mean Tumor Volume” value ([5]; 50 mg/kg, Day 5)?
The value was 168.34 mm3.

What about the tumor volume change [5, 10] of the same compound?
Its tumor volume change is “tumor regression”.

What about the “TERT Expression (RT-qPCR) Mean Fold” value ([6]; 25 mg/kg) of the same compound?
Its value is 0.21 Fold.

What about the “TERT Expression (RT-qPCR) Mean Fold” value ([6]; 50 mg/kg) of the same compound?
Its value is 0.19 Fold.

What about the “TERT mRNA in tumor” value [6, 10] of the same compound?
The value was “TERT mRNA reduction”.

What about the “% Mean body weight change” value ([7]; 25 mg/kg, DAY 1) of the same compound?
The value was 0%.

And the “% Mean body weight change” value ([7]; 25 mg/kg, DAY 3)?
Its value is −4.36%.

And the “% Mean body weight change” value ([7]; 25 mg/kg, DAY 5)?
The value was −3.65%.

What about the “% Mean body weight change” value ([7]; 50 mg/kg, DAY 1) of the same compound?
The value was 0%.

What about the “% Mean body weight change” value ([7]; 50 mg/kg, DAY 3) of the same compound?
The value was −11.09%.

What about the “% Mean body weight change” value ([7]; 50 mg/kg, DAY 5) of the same compound?
Its value is −10.68%.

And the “Median Survival” value ([8]; 20 mg/kg/day, bid (n = 10))?
The value was 50.

What about the “Median Survival” value ([8]; 50 mg/kg/day, bid (n = 10)) of the same compound?
The value was 62.5.

And the “Median Survival” value ([8]; 100 mg/kg/day, bid × 3 days, then 50 mg/kg/day, qd (n = 9))?
Its value is “Undefined”.

What about the body weight [9] of the same compound?
The body weight was “mice losing weight”.
